Measurements taken from article PMC12040169 (PLOS Biology, 2025).

Assay: in vitro
Conditions: human, hela cells, % viability

Row | SMILES | viability at 28.5 h, 10 µM
1 | O=C(NNCc1ccccc1)c1cc(Br)cnc1N1CCN(C(=O)c2ccco2)CC1 [CBK076460] | 101%
2 | CNC1CCCCCC1(O)c1ccccc1 (stereo not shown) [CBK005073] | 99.2%
3 | Cc1nc2ccc(C(=O)N(C)CCN3CCCCC3)cc2s1 [CBK281919] | 93.4%
4 | OC[C@@H](c1ccccc1)N1CC[C@H]2c3ccc(Br)cc3CC[C@H]21 [CBK017507C] | 84.4%
5 | O=C(c1ccco1)N1CCCC(n2cnc3cc(F)ccc32)C1 (stereo not shown) [CBK284475] | 94.8%
6 | COc1ccccc1CC(=O)N1CCN(Cc2ccco2)C[C@@H]1C [CBK285481] | 105%
7 | Cc1ccccc1-n1nc(C)c(CN2CCC(O)C(C)C2)c1C (stereo not shown) [CBK282739] | 84.2%
8 | CCOC(=O)C(Cc1ccccc1)NC(=O)c1cn[nH]c1C (stereo not shown) [CBK305499] | 99.7%
9 | Cc1ccccc1-c1ccccc1CC1(C(=O)N(C)C)CCN(C(=O)C2CC=CCC2)CC1 (stereo not shown) [CBK285733] | 97.2%
10 | CN(C)CCN(Cc1ccccc1)C(=O)NCc1ccc(C#N)cc1 [CBK155097] | 89.2%
11 | O=C(Nc1ccc(O)cc1C(=O)O)c1ccc2c(c1)C(=O)N(Cc1ccco1)C2=O [CBK267418] | 103%
12 | CC1CCN(c2ccc([N+](=O)[O-])c(N3CCC(C)CC3)c2)CC1 [CBK001367] | 92.5%
13 | C[C@]1(CO)C2CC[C@H]3OC(=O)C[C@H]3[C@]2(C)CC[C@H]1OC(=O)Nc1ccccc1 (stereo partly shown) [CBK289577] | 84.5%
14 | COCc1cn(C[C@H]2CC3CCN2C[C@@H]3C(=O)NC(C)C)nn1 (stereo partly shown) [CBK288733] | 89.2%
15 | CCn1c2ccccc2c2cc(CN3CCN(Cc4c[nH]c5ccccc45)CC3)ccc21 [CBK263167] | 89.3%
16 | S=C1C=C(c2ccccc2)Nc2ccccc2N1 [CBK288438] | 87.2%
17 | COc1cc(CNc2cc(-c3ccc4c(c3)OCO4)ncn2)cc(OC)c1OC [CBK037822] | 98.9%
18 | c1cc(-c2nnc3n2CCCCS3)ccn1 [CBK288543] | 99.3%
19 | c1csc(-c2csc3ncnc(NCCCN4CCOCC4)c23)c1 [CBK267166] | 98.1%
20 | CN1CCN(c2cc(-c3cccc4cccnc34)nc3ccnn23)CC1 [CBK037013] | 90.8%
21 | O=C(c1ccco1)N1CCC(n2c(=O)oc3ccc(Cl)cc32)CC1 [CBK284343] | 103%
22 | C=CCNC(=O)Cn1cccc2cc(-c3ccc(OC)cc3)nc1-2 [CBK285348] | 92.4%
23 | Nc1nonc1C(=O)NCCNS(=O)(=O)c1ccc(F)cc1 [CBK265980] | 88.1%

Row | SMILES | viability at 28.5 h, 10 µM
24 | COc1ccc2cc(Cn3nc(C(=O)O)c4ccccc4c3=O)c(Cl)nc2c1 [CBK295354] | 88%
25 | Cc1cnc2n(c1=O)C(CC(=O)NCc1ccncc1)CS2 (stereo not shown) [CBK287671] | 111%
26 | CN(C)CC(C)(C)CNC(=O)c1ccccc1-n1cccc1 [CBK149600] | 92.3%
27 | CCOCCC(=O)N/N=C(/C)c1ccc(Cl)s1 [CBK007454] | 94.8%
28 | CSCCc1[nH]c(SCC(=O)Nc2cccc3ccccc23)nc1C [CBK266097] | 91.3%
29 | CC(C)c1ccc(S(=O)(=O)NCc2csc3ccccc23)cc1 [CBK044662] | 96.6%
30 | CCCN1CC(NS(=O)(=O)c2ccnn2CCC)CC1=O (stereo not shown) [CBK306598] | 92.9%
31 | O=C(NCC1CCCO1)C1CCCN(C(=O)c2cc(-c3ccccn3)[nH]n2)C1 (stereo not shown) [CBK210893] | 91.7%
32 | CCCn1c(SCC(=O)N2CCN(S(=O)(=O)c3ccc(C)cc3C)CC2)n[nH]c1=O [CBK295590] | 104%
33 | O=C1OCC(O)=C1C(c1ccccc1)C1CC1 (stereo not shown) [CBK010731] | 91%
34 | COCC(=O)N1C2CCC(C2)[C@@H]1COc1ccc(F)cc1 (stereo partly shown) [CBK284603] | 109%
35 | CN1C(=O)CC2(C1=O)C(=O)N(Cc1ccc3ccccc3n1)c1ccc(Cl)cc12 (stereo not shown) [CBK075494] | 102%
36 | COc1cccc(NCc2nnc(SCC(=O)O)n2C2CCCCC2)c1 [CBK297499] | 95.6%
37 | COc1ccccc1C1(O)CCCC2CN(C(C)=O)CC21 (stereo not shown) [CBK283134] | 102%
38 | COc1ccc(C2C=C(C)Nc3nc(N)nn32)cc1 (stereo not shown) [CBK287906] | 91.8%
39 | CCCCNc1ncncc1-c1ccc(Br)cc1 [CBK005014C] | 88.6%
40 | COc1cncc(C(NC(=O)c2cc(=O)cc(C)o2)[C@H]2C[C@@H](O)C2)c1 (stereo partly shown) [CBK306833] | 97.5%
41 | CCOc1ccc(C(N)CC(=O)O)c2ccccc12 (stereo not shown) [CBK287120] | 89.1%
42 | CCc1noc(C)c1C(=O)N1CCN(C2CCCC2O)CC1 (stereo not shown) [CBK304869] | 78%
43 | CCCC/C=C/c1cnc2[nH]c(=O)n(Cc3ccccn3)c2n1 [CBK064365] | 102%
44 | CCCCc1ccc(NC(=S)NC(=O)c2ccc(OC)c(OC)c2)cc1 [CBK157691] | 100%
45 | CCC(=O)N1CCc2cc(C(O)CN3CCCC3)ccc21 (stereo not shown) [CBK283110] | 97.7%
46 | Cc1cc(COc2nccnc2N2CCN(CC3CCCCC3)CC2)no1 [CBK084205] | 94.2%
